Series [1] deals with T1, endogenous phosphorylated LRRK2 (S935) (Homo sapiens, UniProt Q5S007).
T1 construct: Detection of endogenous phosphorylated LRRK2 (S935) in A549 cells; endogenous in cells; host or cells: A549
The series can be described thus: detection of endogenous phosphorylated LRRK2 (S935) in A549 cells (Western blot). The series is classed as cell-based. To be noted: at 2 µM, LRRK2 (S935) activity in A549 cells, 15 hours; read-out: Inhibition rate. On the procedure:
Detection of endogenous phosphorylated LRRK2 (S935) in A549 cells
A549 cells were resuspended in serum-free 1640 medium at a density of 1×10^6 cells/ml, and inoculated into a 6-well plate at 1 ml/well, and cultured at 37°C and 5% CO2 for 6-8 hours. 1 microliter of compound solution in DMSO or DMSO (volume ratio of 0.1%) was added, mixed evenly, and cultivated at 37°C and 5% CO2 for 15 hours. Cells were collected, 50 microliters of RIPA III lysis solution were added to each sample to lyse cells on ice for 15 minutes, centrifuged at 4°C and 13000 rpm for 30 minutes, the supernatant was collected, the protein concentration of cell lysis solution was measured by BCA, and the protein concentrations of all samples were normalized. 5×sample loading buffer were added and kept at 95°C for 10 minutes. The content of phosphorylated S935 of endogenous LRRK2 was detected by Western blot, using antibody against phosphorylated LRRK2 (S935) (Abcam#133450). The signal intensity of phosphorylated LRRK2 (S935) was counted by Image J, the signal of phosphorylated LRRK2 (S935) in a sample was normalized by β-actin, and the data was analyzed.
(In general: Immunoblotting shows a protein as a band on a membrane.)

The nature of series [2]: measurement of the solubility of compounds in water and diluted hydrochloric acid. The series is classed as physicochemical. To be noted: thermodynamic from solid; for solubility at 1 h: simulated gastric fluid, diluted hydrochloric acid solution A (pH-1.5), room temperature; for solubility: ultrapure water (pH-6), room temperature overnight. On the procedure:
Example 117: measurement of the solubility of compounds in water and diluted hydrochloric acid
The compounds were dissolved in acetonitrile (LCMS pure) and prepared into standard samples having the concentration gradient of 1000 µg/mL, 500 µg/mL, 250 µg/mL, 125 µg/mL, 62.5 µg/mL, and 31.25 µg/mL.
About 1.0 mg of the powder of the compound to be tested was weighed and added to 0.3 mL of ultrapure water (pH-6), the resulting mixture was shaked thoroughly at room temperature overnight and centrifuged, and the supernatant was taken and diluted 10 times with acetonitrile. The sample was analyzed after mixing evenly.
153.8 µL of 6 M HCl was pipetted, 20 mL of water was added, and mixed evenly to prepare diluted hydrochloric acid solution A (pH-1.5). About 1.0 mg of the powder of the compound to be tested was weighed and added to 0.3 mL of diluted hydrochloric acid solution A, the resulting mixture was shaked thoroughly at room temperature for 1 hour and centrifuged, and the supernatant was taken and diluted 10 times with acetonitrile. The sample was analyzed after mixing evenly.
The standard sample and the sample to be tested were analyzed by Shimadzu LCMS-2020, where chromatographic column was Skim-psck GIST 5 µm C18 2.1*[…]; mobile phase A was water and mobile phase B was methanol; and flow rate was 0.3 mL/min. The gradient of B was as the following: 0 min: 10%; 0-1.0 min: 10%; 1.0-2.5 min: 95%; 3.0-4.0 min: 95%; 4.0-4.1 min: 10%; 4.1-6.0 min: 10%.
The relationship between the concentration and peak area of the standard sample was ploted into a standard curve, and the concentration of the sample to be tested was calibrated using this standard curve. Compound solubility = concentration of the sample to be tested × 10 [formula]

Series [3] concerns the target T2, LRRK2 (Homo sapiens, UniProt Q5S007). The series can be described thus: experiment of inhibiting LRRK2 kinase activity (ADP-Glo method). The class given is biochemical. To be noted: Table 4. On the procedure: The inhibitory effect of the compounds on the activity of LRRK2 kinase was detected by ADP-Glo method. The diluted solutions of the compounds were transfered to a 384-well plate (784075, Greiner), the plate was sealed and centrifuged at a speed of 1000 g for 1 minute. A kinase solution at 2-fold final concentration was prepared with 1×kinase buffer, 2.5 µl of the kinase solution with 2-fold final concentration was added to the wells, the plate was centrifuged at 1000 g for 30 seconds, and left at room temperature for 10 minutes. A mixed solution of ATP and kinase substrate at 2-fold final concentration was prepared with 1×kinase buffer, and 2.5 µL of mixed solution of ATP and substrate at 2-fold final concentration was added to start the reaction. The plate was centrifuged at 1000 g for 30 seconds, sealed and left at room temperature for 2 hours. 4 µL of ADP-Glo reagent was added and incubated at room temperature for 40 minutes; 8 µL kinase detection reagent was added and incubated at room temperature for another 40 minutes. The luminescence signal value was detected on Envision 2104 microplate reader. The conversion inhibition rate%=100-(compound signal value-positive control signal value)/(blank control signal value-positive control signal value)×100.
The IC50 was calculated with GraphPad 6.0 and the dose-responsive curve of the compounds was plotted as follows: y=Bottom+(Top-Bottom)/(1+10^((logic50-x)×hillslope)), where x was logarithm of inhibitor concentration; and y was % inhibition rate.
Background: In ADP-Glo the light output rises with the ADP produced.

In series [4] the target is CDK9 (Homo sapiens, UniProt P50750). Description: experiment of inhibiting kinase activity (Caliper mobility shift assay), CDK9. The series is classed as biochemical. To be noted: at 100 nM; read-out: inhibition rate CDK9. Summed up: (§1)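 Steps: compound and kinase in 1× kinase buffer, 10 min at room temperature; ATP plus substrate added to start; reaction run at room temperature, then stopped. Conversion read by Caliper; IC50 from four-parameter variable-slope fit of % inhibition against log concentration.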

The target of series [5] is JAK2 (Homo sapiens, UniProt O60674). Description: experiment of inhibiting kinase activity (Caliper mobility shift assay), JAK2. The class given is biochemical. To be noted: read-out: inhibition rate JAK2; for inhibition at 0.01 µM: at 10 nM. The method, boiled down: as §1
The target of series [6] is JAK1 (Homo sapiens, UniProt P23458). The series can be described thus: experiment of inhibiting kinase activity (Caliper mobility shift assay), JAK1. The series is classed as biochemical. Conditions: read-out: inhibition rate JAK1. Summed up:
as §1

Series [7] has as its target T3, JAK3 (Homo sapiens, UniProt P52333).
T3 sequence (P52333 1-1124): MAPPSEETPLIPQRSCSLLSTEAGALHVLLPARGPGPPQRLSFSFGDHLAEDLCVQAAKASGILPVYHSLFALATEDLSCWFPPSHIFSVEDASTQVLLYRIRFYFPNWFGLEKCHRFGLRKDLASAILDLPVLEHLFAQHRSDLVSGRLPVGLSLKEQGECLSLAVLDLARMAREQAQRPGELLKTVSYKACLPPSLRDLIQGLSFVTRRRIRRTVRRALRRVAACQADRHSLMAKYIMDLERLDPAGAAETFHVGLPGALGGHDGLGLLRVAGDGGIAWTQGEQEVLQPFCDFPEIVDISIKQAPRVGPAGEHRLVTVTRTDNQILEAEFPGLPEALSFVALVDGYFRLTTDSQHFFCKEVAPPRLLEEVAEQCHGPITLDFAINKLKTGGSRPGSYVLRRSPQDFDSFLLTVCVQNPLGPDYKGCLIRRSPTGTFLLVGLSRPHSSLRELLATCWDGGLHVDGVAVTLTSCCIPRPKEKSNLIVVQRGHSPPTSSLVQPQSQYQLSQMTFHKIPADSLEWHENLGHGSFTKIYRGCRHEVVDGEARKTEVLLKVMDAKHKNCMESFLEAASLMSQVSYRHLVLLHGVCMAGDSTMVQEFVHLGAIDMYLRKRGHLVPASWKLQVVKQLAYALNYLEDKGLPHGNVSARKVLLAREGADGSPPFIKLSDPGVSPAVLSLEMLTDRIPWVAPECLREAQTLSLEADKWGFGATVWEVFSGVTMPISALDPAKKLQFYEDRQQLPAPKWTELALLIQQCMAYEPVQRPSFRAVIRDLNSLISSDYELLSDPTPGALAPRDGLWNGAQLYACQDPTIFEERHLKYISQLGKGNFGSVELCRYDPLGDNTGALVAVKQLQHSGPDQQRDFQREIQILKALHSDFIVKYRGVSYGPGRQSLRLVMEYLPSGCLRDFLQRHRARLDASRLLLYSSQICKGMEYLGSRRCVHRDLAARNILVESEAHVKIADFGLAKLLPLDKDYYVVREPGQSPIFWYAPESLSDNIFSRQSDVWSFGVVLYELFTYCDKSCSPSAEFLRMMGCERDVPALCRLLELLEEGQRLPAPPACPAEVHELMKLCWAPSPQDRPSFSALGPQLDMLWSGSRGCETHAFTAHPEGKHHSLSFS
Description: experiment of inhibiting kinase activity (Caliper mobility shift assay), JAK3. The class given is biochemical. Conditions: read-out: inhibition rate JAK3; for inhibition at 0.01 µM: at 10 nM. Summed up:
as §1

For series [8], the target named is T2, LRRK2. Description: experiment of inhibiting kinase activity, LRRK2. The class given is biochemical. Conditions: read-out: inhibition rate LRRK2; for inhibition at 0.01 µM: at 10 nM. As to the method: (§2) The inhibition rates of tested compounds on JAK1, JAK2, JAK3, TYK2, CDK7, CDK9, EGFR (T790M) and LRRK2 kinases were measured. The test concentrations of the compounds were 10 nM and 100 nM, and the detection was performed by replicate wells. Alternatively, compounds were 3-fold serial diluted from 10 µM for 10 concentrations in replicate wells.

In series [9] the target is CDK7 (Homo sapiens, UniProt P50613). The series can be described thus: experiment of inhibiting kinase activity (Caliper mobility shift assay), CDK7. The class given is biochemical. Conditions: read-out: inhibition rate CDK7. Summed up: as §1
Series [10] concerns the target TYK2 (Homo sapiens, UniProt P29597). Description: experiment of inhibiting kinase activity, TYK2. The series is classed as biochemical. To be noted: read-out: inhibition rate TYK2. As to the method:
as §2

In brackets after ≈: the same amount, converted by molar mass.

As a reminder, the inhibition is how much of the control response was suppressed. The term solubility denotes the dissolved amount per volume that the medium holds. As a reminder, the IC50 is the concentration that gives 50% inhibition. A lower IC50 goes with greater potency.

Sequence of JAK2 (O60674 whole entry): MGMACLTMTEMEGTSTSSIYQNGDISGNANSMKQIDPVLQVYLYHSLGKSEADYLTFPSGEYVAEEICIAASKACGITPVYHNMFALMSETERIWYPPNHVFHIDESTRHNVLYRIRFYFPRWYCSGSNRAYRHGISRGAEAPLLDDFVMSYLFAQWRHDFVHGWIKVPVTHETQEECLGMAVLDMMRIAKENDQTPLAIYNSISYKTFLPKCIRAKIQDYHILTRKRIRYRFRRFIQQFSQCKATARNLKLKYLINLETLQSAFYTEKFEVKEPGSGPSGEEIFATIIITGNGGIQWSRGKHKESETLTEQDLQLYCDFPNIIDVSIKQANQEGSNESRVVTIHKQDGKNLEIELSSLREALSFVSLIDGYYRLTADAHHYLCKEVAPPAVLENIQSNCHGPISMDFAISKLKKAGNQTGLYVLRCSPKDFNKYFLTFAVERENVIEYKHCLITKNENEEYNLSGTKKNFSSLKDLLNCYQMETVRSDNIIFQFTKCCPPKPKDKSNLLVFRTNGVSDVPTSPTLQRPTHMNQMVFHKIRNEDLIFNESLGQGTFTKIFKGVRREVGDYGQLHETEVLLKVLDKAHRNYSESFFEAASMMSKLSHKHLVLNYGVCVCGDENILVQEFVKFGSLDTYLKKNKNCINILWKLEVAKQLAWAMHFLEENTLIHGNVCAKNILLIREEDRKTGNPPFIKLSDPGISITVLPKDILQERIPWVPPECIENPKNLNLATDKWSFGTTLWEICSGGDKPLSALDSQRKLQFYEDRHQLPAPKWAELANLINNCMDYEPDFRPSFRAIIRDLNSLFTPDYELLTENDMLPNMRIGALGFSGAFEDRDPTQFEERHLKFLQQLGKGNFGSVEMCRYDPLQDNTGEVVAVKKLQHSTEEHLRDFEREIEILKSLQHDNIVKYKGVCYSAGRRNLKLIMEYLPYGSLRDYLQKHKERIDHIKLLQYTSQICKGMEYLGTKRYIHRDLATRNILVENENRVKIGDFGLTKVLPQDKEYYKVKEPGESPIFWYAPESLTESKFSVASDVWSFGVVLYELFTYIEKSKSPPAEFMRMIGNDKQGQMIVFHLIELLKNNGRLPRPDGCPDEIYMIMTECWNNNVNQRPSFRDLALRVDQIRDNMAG
T2 sequence (Q5S007 whole entry): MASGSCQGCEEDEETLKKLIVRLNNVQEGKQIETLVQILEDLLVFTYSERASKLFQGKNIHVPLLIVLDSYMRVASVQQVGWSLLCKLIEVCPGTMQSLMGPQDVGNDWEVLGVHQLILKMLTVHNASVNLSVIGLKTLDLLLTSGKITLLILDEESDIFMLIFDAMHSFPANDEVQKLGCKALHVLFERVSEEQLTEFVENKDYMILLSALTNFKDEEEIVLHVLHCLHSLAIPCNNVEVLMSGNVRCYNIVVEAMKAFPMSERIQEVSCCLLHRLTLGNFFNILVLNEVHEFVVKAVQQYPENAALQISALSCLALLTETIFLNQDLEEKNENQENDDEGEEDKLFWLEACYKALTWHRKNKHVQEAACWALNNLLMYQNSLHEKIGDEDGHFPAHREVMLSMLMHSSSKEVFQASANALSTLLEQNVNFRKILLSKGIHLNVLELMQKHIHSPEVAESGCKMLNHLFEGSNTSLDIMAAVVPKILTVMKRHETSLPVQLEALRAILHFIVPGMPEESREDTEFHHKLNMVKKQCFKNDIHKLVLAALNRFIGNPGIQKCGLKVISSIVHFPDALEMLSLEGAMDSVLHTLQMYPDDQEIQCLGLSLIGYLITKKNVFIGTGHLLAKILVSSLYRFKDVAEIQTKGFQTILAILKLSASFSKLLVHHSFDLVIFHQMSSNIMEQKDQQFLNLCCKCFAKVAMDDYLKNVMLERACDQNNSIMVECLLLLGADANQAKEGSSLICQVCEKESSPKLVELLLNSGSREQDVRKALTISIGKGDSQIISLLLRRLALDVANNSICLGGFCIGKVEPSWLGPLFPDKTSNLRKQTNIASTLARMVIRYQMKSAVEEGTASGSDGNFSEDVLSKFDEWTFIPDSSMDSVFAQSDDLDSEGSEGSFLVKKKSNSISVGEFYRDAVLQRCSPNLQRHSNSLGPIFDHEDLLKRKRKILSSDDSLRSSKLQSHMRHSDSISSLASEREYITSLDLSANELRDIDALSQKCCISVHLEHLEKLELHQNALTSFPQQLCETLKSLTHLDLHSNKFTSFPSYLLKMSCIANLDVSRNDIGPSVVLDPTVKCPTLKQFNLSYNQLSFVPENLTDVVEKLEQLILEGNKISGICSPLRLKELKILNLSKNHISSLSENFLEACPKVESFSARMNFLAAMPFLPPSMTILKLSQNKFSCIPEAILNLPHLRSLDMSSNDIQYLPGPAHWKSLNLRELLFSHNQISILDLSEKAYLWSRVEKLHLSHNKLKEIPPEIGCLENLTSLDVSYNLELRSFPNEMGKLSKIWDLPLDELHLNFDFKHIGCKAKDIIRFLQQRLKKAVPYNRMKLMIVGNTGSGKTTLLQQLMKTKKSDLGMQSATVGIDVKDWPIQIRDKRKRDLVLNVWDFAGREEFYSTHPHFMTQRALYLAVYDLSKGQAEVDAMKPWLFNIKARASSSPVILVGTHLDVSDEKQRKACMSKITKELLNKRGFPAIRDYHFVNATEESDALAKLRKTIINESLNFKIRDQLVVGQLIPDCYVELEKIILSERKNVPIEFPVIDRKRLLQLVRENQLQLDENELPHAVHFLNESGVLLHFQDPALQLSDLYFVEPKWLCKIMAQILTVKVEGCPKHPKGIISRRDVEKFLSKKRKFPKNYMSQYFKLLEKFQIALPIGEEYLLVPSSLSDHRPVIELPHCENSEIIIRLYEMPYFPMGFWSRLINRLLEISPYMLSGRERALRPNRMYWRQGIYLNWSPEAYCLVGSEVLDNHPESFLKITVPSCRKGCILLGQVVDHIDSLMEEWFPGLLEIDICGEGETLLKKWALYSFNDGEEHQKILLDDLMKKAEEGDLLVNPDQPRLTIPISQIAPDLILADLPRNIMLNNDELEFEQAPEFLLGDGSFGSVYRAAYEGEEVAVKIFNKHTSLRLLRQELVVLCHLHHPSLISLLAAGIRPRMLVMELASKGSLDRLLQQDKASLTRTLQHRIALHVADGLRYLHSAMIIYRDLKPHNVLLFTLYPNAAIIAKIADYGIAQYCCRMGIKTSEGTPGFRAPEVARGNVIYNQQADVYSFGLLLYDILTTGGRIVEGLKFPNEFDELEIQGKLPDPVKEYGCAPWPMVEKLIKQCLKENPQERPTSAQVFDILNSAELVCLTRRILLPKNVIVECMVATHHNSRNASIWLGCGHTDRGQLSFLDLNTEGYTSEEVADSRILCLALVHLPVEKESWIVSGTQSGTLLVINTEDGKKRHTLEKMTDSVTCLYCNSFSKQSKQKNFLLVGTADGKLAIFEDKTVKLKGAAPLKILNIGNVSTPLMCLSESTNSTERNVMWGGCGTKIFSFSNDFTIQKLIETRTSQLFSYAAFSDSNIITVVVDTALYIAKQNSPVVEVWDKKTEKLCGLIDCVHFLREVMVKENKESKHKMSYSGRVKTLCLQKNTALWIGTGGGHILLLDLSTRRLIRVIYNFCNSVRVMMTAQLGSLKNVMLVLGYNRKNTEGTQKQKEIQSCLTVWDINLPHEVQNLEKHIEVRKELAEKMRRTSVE
Sequence of CDK7 (P50613 whole entry, species assumed): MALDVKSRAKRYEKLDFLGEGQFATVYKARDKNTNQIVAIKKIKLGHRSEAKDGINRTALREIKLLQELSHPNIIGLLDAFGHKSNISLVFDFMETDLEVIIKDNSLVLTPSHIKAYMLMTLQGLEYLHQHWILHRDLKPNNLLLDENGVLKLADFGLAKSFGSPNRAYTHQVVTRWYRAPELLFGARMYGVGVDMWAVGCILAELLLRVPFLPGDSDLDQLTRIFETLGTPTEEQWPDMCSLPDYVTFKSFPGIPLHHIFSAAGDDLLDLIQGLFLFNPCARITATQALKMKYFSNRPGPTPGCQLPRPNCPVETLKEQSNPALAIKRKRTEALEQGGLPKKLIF
Sequence of CDK7 (P51946 whole entry partner, species assumed): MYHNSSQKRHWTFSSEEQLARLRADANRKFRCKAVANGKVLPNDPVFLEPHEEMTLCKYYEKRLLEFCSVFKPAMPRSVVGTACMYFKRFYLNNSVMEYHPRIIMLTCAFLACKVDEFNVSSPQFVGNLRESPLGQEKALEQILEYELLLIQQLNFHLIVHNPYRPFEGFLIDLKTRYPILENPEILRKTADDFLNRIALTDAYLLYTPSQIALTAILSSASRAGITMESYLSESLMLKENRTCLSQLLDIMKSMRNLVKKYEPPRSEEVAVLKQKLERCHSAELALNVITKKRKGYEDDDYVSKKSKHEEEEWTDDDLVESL
Sequence of CDK7 (P51948 whole entry partner, species assumed): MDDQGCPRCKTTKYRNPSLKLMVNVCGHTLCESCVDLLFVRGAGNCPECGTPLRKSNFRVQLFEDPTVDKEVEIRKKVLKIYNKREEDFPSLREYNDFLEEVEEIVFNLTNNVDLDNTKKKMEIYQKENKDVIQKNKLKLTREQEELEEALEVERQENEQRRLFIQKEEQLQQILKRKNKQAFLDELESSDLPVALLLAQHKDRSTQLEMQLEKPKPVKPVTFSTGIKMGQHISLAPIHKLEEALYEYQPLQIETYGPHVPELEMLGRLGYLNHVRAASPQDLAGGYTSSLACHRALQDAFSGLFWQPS
T1 sequence (Q5S007 whole entry): as the sequence (Q5S007 whole entry) above

Consider `CN1CCOCCOc2ccc(Nc3ncc(C(F)(F)F)c(O[C@H]4CC[C@@](C)(O)CC4)n3)cc2OCC1` [Example 7, (1s,4s)-1-methyl-4-((2-((7-methyl-2,3,6,7,8,9-hexahydro-5H-benzo[b][1,4,7]trioxa[10]azacyclododecan-12-yl)amino)-5-(trifluoromethyl)pyrimidin-4-yl)oxy)cyclohexan-1-ol], for which, in series [1], the inhibition at 2 µM is over 80%. In series [2], this compound came in with a solubility at 1 h of over 3770 µg/mL and a solubility of 680 µg/mL (≈ 1290 µM). This compound also returned an IC50 in series [3] of under 100 nM.

In series [2], `CN1CCOc2ccc(Nc3ncc(C(F)(F)F)c(NCCP(C)(C)=O)n3)cc2OCC1` [Example 86, dimethyl(2-((2-((4-methyl-3,4,5,6-tetrahydro-2H-benzo[b][1,4,7]dioxazolin-9-yl)amino)-5-(trifluoromethyl)pyrimidin-4-yl)amino)ethyl)phosphine oxide] returned a solubility at 1 h of over 3830 µg/mL and a solubility of 688 µg/mL (≈ 1450 µM). For the same compound, the IC50 in [3] is under 100 nM.

Regarding `CC(C)S(=O)(=O)c1ccccc1Nc1nc(Nc2ccc3c(c2)OCCOCCNCCO3)nc2[nH]ccc12` [Example 97, N^2-(2,3,6,7,8,9-hexahydro-5H-benzo[b][1,4,7]trioxa[10]azacyclododecan-13-yl)-N^4-(2-(isopropylsulfonyl)phenyl)-7H-pyrrolo[2,3-d]pyrimidin-2,4-diamine], the inhibition at 0.1 µM in series [4] was 40 to 79%; in [5] (at 100 nM), over 80%; in series [6] (at 100 nM), 40 to 79%; in [7] (at 100 nM) it was over 80%; in series [8] (at 100 nM), over 80%; in series [9] (at 100 nM), over 80%. Moreover, in [10] (at 100 nM), the inhibition at 0.1 µM lay in the range of 40 to 79%. The inhibition at 0.01 µM in series [5] is over 80%; in [7], 40 to 79%; in series [8] it was over 80%; in series [9] (at 10 nM), 40 to 79%. In series [2], this compound returned a solubility at 1 h of over 4330 µg/mL. For the same compound, the solubility in series [2] amounted to 180 µg/mL (≈ 326 µM).

Turning to `CN1CCOCCOc2cc(Nc3nc(-c4cnn([C@@H](CC#N)C5CCCC5)c4)c4cc[nH]c4n3)ccc2OCC1` [Example 75, (S)-3-cyclopentyl-3-(4-(2-((7-methyl-2,3,6,7,8,9-hexahydro-5H-benzo[b][1,4,7]trioxa[10]azacyclododecan-13-yl)amino)-7H-pyrrolo[2,3-d]pyrimidin-4-yl)-1H-pyrazol-1-yl) propionitrile], the inhibition at 0.01 µM in [5], in [6] (at 10 nM), in series [7], in series [8] and in series [10] (at 10 nM) was over 80% in each case. Also, in [2], the solubility at 1 h was over 3500 µg/mL. In addition, in [2], the solubility is 120 µg/mL (≈ 216 µM).

These data come from patent EP4592286A1, “MACROCYCLIC NITROGEN-CONTAINING CROWN ETHER COMPOUND AND USE THEREOF AS PROTEIN KINASE INHIBITOR” (Artivila Biopharma, priority 2022, dated 2024).
